In experiment [1] the target is Prostaglandin E2 receptor EP2 subtype (Homo sapiens, UniProt P43116). The experiment in a line: Binding affinity at human Prostanoid EP2 receptor.
In experiment [2] the target is Prostaglandin E2 receptor EP4 subtype (Homo sapiens, UniProt P35408). The experiment can be described thus: Binding affinity at human Prostanoid EP4 receptor.
Experiment [3] deals with T1, Prostaglandin E2 receptor EP3 subtype (Homo sapiens, UniProt P43115).
T1 sequence (P43115 whole entry): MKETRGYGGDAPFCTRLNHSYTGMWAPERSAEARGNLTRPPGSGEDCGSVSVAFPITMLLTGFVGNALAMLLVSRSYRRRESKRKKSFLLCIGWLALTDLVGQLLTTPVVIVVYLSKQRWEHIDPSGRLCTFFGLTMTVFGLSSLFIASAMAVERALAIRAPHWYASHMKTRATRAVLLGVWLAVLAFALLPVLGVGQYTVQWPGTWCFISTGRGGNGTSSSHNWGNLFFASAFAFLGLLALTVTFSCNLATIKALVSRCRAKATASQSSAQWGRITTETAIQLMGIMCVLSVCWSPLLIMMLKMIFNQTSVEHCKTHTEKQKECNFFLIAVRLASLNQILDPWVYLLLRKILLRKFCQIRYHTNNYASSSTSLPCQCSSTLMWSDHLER
The experiment in a line: Binding affinity at human Prostanoid EP3 receptor.

Experiment [4] concerns the target T2, Prostaglandin E2 receptor EP1 subtype (Homo sapiens, UniProt P34995).
T2 sequence (P34995 whole entry): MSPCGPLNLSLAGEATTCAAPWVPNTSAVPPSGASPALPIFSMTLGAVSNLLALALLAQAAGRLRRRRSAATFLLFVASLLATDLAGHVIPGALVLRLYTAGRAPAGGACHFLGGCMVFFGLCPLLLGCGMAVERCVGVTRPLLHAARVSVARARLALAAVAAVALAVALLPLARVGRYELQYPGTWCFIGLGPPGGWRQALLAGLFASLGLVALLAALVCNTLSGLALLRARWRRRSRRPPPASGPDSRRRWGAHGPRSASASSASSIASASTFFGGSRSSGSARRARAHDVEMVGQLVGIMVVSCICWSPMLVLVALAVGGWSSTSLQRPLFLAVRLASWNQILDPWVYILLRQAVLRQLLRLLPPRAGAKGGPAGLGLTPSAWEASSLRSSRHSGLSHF
The experiment can be described thus: Binding affinity at human Prostanoid EP1 receptor.

Experiment [5] concerns the target Prostaglandin F2-alpha receptor (Homo sapiens, UniProt P43088). The experiment in a line: Inhibitory constant against Prostanoid FP receptor.
The target of experiment [6] is T3, Prostaglandin D2 receptor (Homo sapiens, UniProt Q13258).
T3 sequence (Q13258 whole entry): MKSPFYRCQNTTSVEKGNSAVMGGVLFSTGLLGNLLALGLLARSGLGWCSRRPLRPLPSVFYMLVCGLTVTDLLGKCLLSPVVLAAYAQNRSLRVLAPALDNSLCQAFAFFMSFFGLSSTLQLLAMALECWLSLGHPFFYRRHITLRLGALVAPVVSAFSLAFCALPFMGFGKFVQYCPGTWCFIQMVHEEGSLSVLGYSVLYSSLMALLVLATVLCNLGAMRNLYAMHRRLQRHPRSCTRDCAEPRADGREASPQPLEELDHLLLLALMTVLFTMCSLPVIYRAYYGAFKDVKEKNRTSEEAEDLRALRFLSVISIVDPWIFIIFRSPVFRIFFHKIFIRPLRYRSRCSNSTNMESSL
The experiment can be described thus: Inhibitory constant against Prostanoid DP receptor.

Another experiment deals with Prostacyclin receptor (Homo sapiens, UniProt P43119). The experiment can be described thus: Inhibitory constant against Prostanoid IP receptor.
Sequence of Prostacyclin receptor (P43119 whole entry): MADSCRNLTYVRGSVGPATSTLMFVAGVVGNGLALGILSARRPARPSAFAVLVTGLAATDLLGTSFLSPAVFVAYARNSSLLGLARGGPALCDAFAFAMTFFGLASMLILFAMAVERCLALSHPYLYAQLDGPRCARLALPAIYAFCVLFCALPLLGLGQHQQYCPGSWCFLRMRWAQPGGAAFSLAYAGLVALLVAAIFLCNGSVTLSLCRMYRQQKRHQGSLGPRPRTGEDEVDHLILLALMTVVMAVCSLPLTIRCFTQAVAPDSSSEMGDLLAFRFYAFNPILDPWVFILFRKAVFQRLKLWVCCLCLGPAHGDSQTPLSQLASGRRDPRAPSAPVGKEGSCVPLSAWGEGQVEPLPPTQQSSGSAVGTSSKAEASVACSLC

Sequence of Prostaglandin E2 receptor EP2 subtype (P43116 whole entry): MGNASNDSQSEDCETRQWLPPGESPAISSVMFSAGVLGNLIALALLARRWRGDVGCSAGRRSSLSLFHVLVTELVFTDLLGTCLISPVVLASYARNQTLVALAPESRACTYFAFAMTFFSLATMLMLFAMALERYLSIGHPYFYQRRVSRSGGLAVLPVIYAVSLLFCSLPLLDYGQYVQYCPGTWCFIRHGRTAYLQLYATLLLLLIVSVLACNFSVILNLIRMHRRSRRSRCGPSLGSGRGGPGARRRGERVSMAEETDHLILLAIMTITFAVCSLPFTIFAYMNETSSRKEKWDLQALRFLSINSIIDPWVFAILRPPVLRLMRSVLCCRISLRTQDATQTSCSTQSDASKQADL
Sequence of Prostaglandin E2 receptor EP4 subtype (P35408 whole entry): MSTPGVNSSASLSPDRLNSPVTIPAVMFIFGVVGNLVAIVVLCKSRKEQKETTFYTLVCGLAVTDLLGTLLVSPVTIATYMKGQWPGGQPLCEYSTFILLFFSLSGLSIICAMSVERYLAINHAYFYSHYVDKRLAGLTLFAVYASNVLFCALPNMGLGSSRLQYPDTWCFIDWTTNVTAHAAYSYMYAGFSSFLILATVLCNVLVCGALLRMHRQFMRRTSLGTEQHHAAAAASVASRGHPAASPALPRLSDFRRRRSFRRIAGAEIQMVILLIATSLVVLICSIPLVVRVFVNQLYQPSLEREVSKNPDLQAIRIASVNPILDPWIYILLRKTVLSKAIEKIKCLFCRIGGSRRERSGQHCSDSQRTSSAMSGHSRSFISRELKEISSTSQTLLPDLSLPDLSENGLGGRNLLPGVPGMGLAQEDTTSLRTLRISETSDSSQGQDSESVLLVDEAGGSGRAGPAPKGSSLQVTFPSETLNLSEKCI
Sequence of Prostaglandin F2-alpha receptor (P43088 whole entry): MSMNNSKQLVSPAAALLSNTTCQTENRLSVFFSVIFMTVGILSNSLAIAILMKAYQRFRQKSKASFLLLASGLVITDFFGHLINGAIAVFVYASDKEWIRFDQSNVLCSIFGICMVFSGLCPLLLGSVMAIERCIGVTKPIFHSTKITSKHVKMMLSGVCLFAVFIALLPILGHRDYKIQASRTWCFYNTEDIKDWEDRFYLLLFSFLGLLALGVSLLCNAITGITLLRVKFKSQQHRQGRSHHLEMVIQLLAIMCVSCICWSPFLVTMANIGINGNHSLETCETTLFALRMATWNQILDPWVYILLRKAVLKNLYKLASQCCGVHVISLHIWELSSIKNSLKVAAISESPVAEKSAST

Regarding `c1ccc(CCSCc2ccc(-c3ccccc3CCc3nnn[nH]3)cc2)cc1`, the Ki in experiment [1] was 63 nM; in experiment [2], 2600 nM; in experiment [3] it was 1000 nM; in experiment [4], 4.9 µM.
On to `O=S(=O)(CCc1ccccc1-c1ccc(CSCCc2ccccc2)cc1)NS(=O)(=O)c1cccs1`, for which the Ki in experiment [1] came to 3000 nM; in experiment [2], 1100 nM; in experiment [3] it was 610 nM; in experiment [4] it was 7.5 µM.
As for `O=C(NS(=O)(=O)CCc1ccccc1-c1ccc(CSCCc2ccccc2)cc1)c1cccs1`, the Ki is 2500 nM in experiment [1], 690 nM in experiment [2], 480 nM in experiment [3] and 2.8 µM in experiment [4].
Regarding `Cc1cccc(OCCCOc2ccc(-c3ccccc3CC(C)C(=O)NS(=O)(=O)c3cccs3)cc2)c1` (configuration not stated), the Ki in experiment [1] is 2900 nM; in experiment [2] it was 1100 nM; in experiment [3], 340 nM; in experiment [4] it was 5.8 µM.
Regarding `O=C(/C=C/c1ccccc1-c1cccc(/C=C/c2ccc3ccc(Cl)cc3n2)c1)NS(=O)(=O)c1cccs1`, the Ki in experiment [1] came to 70000 nM; in experiment [2] it was 28000 nM; in experiment [3] it was 110 nM; in experiment [4] it was 41 µM.
`CCCCc1nn(-c2ccccc2C(F)(F)F)c(=O)n1Cc1ccc(-c2ccccc2S(=O)(=O)NC(=O)c2cccs2)cc1`: the Ki in experiment [1] was more than 10000 nM; in experiment [2], 46 nM; in experiment [3] it was 7000 nM; in experiment [4] it was more than 10 µM.
Turning to `CSc1cccc(-c2ccccc2CCC(=O)NS(=O)(=O)c2cccs2)c1`, the Ki turned out to be 31000 nM in experiment [1], 25000 nM in experiment [2], 240 nM in experiment [3] and 27 µM in experiment [4].
Consider `O=C(CCc1ccccc1-c1ccccc1CSCCc1ccccc1)NS(=O)(=O)c1cccs1`, for which the Ki was 3800 nM in experiment [1], 1500 nM in experiment [2], 510 nM in experiment [3] and 0.083 µM in experiment [4].
As to `O=C(CCCc1ccccc1-c1ccc(CSCCc2ccccc2)cc1)NS(=O)(=O)c1cccs1`, the Ki in experiment [1] was 1800 nM; in experiment [2], 700 nM; in experiment [3], 200 nM; in experiment [4], 3 µM.
For `O=C(CCc1ccccc1-c1cccc(/C=C/c2ccc3ccc(Cl)cc3n2)c1)NS(=O)(=O)c1cccs1`, the Ki turned out to be 16000 nM in experiment [1], 19000 nM in experiment [2], 120 nM in experiment [3] and 49 µM in experiment [4].
As for `O=C(CCc1ccccc1-c1ccc(CSCCc2ccccc2)cc1)NS(=O)(=O)c1cccs1`, the inhibitory constant (Ki) in experiment [1] came to 2700 nM; in experiment [2], 1100 nM; in experiment [3], 46 nM; in experiment [4], 1.7 µM.
Regarding `O=C(O)CCc1ccccc1-c1ccc(CSCCc2ccccc2)cc1`, the Ki was 140 nM in experiment [1], 4400 nM in experiment [2], 740 nM in experiment [3] and 8.6 µM in experiment [4].
With `CS(=O)(=O)c1cccc(-c2ccccc2CCC(=O)NS(=O)(=O)c2cccs2)c1`, the Ki was more than 100000 nM in experiment [1], more than 100000 nM in experiment [2], 5900 nM in experiment [3] and more than 100 µM in experiment [4].
Turning to `O=C(Cc1ccccc1-c1ccc(CSCCc2ccccc2)cc1)NS(=O)(=O)c1cccs1`, the inhibitory constant (Ki) in experiment [1] is 590 nM; in experiment [2], 850 nM; in experiment [3] it was 330 nM; in experiment [4], 3.7 µM.
The like results for `O=C(CCc1ccccc1-c1cccc(CSCCc2ccccc2)c1)NS(=O)(=O)c1cccs1` were, in that order, 2000 nM, 1000 nM, 27 nM and 0.82 µM.
For `Cc1cccc(OCCCOc2ccc(-c3ccccc3CCC(=O)NS(=O)(=O)c3cccs3)cc2)c1`, the Ki came out at 2900 nM in experiment [1], 1600 nM in experiment [2], 53 nM in experiment [3] and 4.6 µM in experiment [4].
As for `O=C(CCc1ccccc1-c1ccc(OCCCOc2cccc(CSCCc3ccccc3)c2)cc1)NS(=O)(=O)c1cccs1`, the Ki in experiment [1] was determined as 4900 nM; in experiment [2], 7100 nM; in experiment [3], 16 nM; in experiment [4], 13 µM.
In the case of `O=C(/C=C/c1ccccc1-c1ccc(Cl)c(Cl)c1)NS(=O)(=O)c1cccs1`, the Ki in experiment [1] stood at 27000 nM; in experiment [2], 3700 nM; in experiment [5] it was 17 µM; in experiment [3] it was 25 nM; in experiment [6], 830 nM; in experiment [4], 8.2 µM. The Ki on Prostacyclin receptor worked out at 7.3 µM.
For `Cc1cccc(OCCCOc2ccc(-c3ccccc3CNC(=O)NS(=O)(=O)c3cccs3)cc2)c1`, the Ki is 8600 nM in experiment [1], 2900 nM in experiment [2], 150 nM in experiment [3] and 15 µM in experiment [4].
Regarding `Cc1cccc(OCCCOc2ccc(-c3ccccc3COC(=O)NS(=O)(=O)c3cccs3)cc2)c1`, the Ki came out at 2100 nM in experiment [1], 730 nM in experiment [2], 120 nM in experiment [3] and 2.8 µM in experiment [4].
For the molecule `Cc1cccc(OCCCOc2ccc(-c3ccccc3CC(C)(C)C(=O)NS(=O)(=O)c3cccs3)cc2)c1`, the inhibition constant (Ki) in experiment [1] stood at 2900 nM; in experiment [2] it was 1000 nM; in experiment [3], 440 nM; in experiment [4] it was 1.8 µM.

The values are drawn from ChEMBL document CHEMBL1135328, “Structure-activity relationship of biaryl acylsulfonamide analogues on the human EP(3) prostanoid receptor” (Bioorg Med Chem Lett, 2002).
